According to PMC10584170, “Machine learning-based phenotypic imaging to characterise the targetable biology of Plasmodium falciparum male gametocytes for the development of transmission-blocking antimalarials” (PLOS Pathogens, 2023):
Where two headings read alike, the source gives them in different places.

Legend:
[1] = tested on: HepG2 cells; test: HepG2 cytotoxicity counter-screen; settings: cytotoxic activity against HepG2 cells
[2] = tested on: P. falciparum male gametocytes; test: P. falciparum Dual Gamete Formation Assay (PfDGFA), male readout (exflagellation); type: cell-based, Plasmodium falciparum NF54; settings: for Selectivity Ratio M: HepG2 Tox50 versus male IC50; for IC50: PfDGFA, 24 h incubation with gametocytes before induction, exflagellation readout, read-out: Male IC50; for HitlevelM: number of replicates with >50% inhibition in the male readout
Outline: (§1)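 Male and female gamete formation were quantified by microscopy image analysis following 24 h incubation of mature NF54 gametocytes with compound and activation at 28°C with xanthurenic acid.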

[3] = tested on: P. falciparum female gametocytes; test: P. falciparum Dual Gamete Formation Assay (PfDGFA), female readout (Pfs25-positive female gametes); type: cell-based, Plasmodium falciparum NF54; settings: for Selectivity ratio F: HepG2 Tox50 versus female IC50; for IC50: PfDGFA, 24 h incubation with gametocytes before induction, female gamete readout, read-out: Female IC50; for HitlevelF: number of replicates with >50% inhibition in the female readout
Outline: as §1

[4] = 2µM, 24h preincubation with gametocytes, average of replicates
[5] = 2µM, 24h preincubation with gametocytes, replicate R1
[6] = 2µM, 24h preincubation with gametocytes, replicate R3
[7] = 2µM, 24h preincubation with gametocytes, replicate R4
[8] = PfDGFA at 2µM, 24h preincubation with gametocytes, average of replicates
[9] = PfDGFA at 2µM, 24h preincubation with gametocytes, replicate R1
[10] = PfDGFA at 2µM, 24h preincubation with gametocytes, replicate R3
[11] = PfDGFA at 2µM, 24h preincubation with gametocytes, replicate R4
[12] = 2µM, 24h preincubation with gametocytes prior to induction of gametogenesis, average of replicates
[13] = 2µM, 24h preincubation with gametocytes prior to induction of gametogenesis, replicate R1
[14] = 2µM, 24h preincubation with gametocytes prior to induction of gametogenesis, replicate R3
[15] = 2µM, 24h preincubation with gametocytes prior to induction of gametogenesis, replicate R4

Structure (SMILES) | Tox50 [1] [µM] | Average inhibition male (%) [2, 4] [%] | % inhibition male (individual replicates) R1 [2, 5] [%] | % inhibition male (individual replicates) R3 [2, 6] [%] | % inhibition male (individual replicates) R4 [2, 7] [%] | Selectivity Ratio M [2] | IC50 [2] [nM] | Average inhibition female (%) [3, 4] [%] | % inhibition female (individual replicates) R1 [3, 5] [%] | % inhibition female (individual replicates) R3 [3, 6] [%] | % inhibition female (individual replicates) R4 [3, 7] [%] | Selectivity ratio F [3] | IC50 [3] [nM] | further results
C=CCC1OC(=O)c2cc(OC)cc(OC)c21 (stereo not shown) [TCMDC-138677] | 2.57 | 100.4 | 99.9 | 100.4 | 100.2 | 2.21 | 1160 | 52.4 | 41.8 | 47.5 | 59.2 | 1.43 | 1800 | –
COc1cc2nc(N3CCC(CNC(=O)c4ccc(-c5ccc(Cl)cc5)cc4)CC3)nc(N)c2cc1OC [TCMDC-138718] | 6.93 | – | – | – | – | 3.57 | 1940 | – | – | – | – | 3.36 | 2060 | Average inhibition male (%) [2, 8]: 79.1%; % inhibition male (individual replicates) R1 [2, 9]: 85.4%; % inhibition male (individual replicates) R3 [2, 10]: 66.5%; % inhibition male (individual replicates) R4 [2, 11]: 84.2%; HitlevelM ([2]; 2µM): 4; Average inhibition female (%) [3, 8]: 49.0%; % inhibition female (individual replicates) R1 [3, 9]: 33.3%; % inhibition female (individual replicates) R3 [3, 10]: 38.5%; % inhibition female (individual replicates) R4 [3, 11]: 37.2%; HitlevelF ([3]; 2µM): 1
COc1cc2nc(N3CCC(CNC(=O)c4ccc(-c5ccc(-c6noc(C)n6)cc5)cc4)CC3)nc(N)c2cc1OC [TCMDC-138754] | 3.68 | 99.2 | 101.8 | 98.0 | 96.9 | 6 | 610 | 48.8 | 31.8 | 47.5 | 53.9 | 6.02 | 610 | –
COc1cc2nc(N3CCC(CNCc4ccc(-c5ccc(C(F)(F)F)cc5)cc4)CC3)nc(N)c2cc1OC [TCMDC-138757] | 2.05 | 97.9 | 97.9 | 96.8 | 99.6 | 9.29 | 220 | 59.1 | 32.6 | 30.7 | 89.8 | 8.75 | 230 | –
Cl.Clc1ccc(OCCC2CCN(CCCCCCCN3CCC(CCOc4ccc(Cl)c(Cl)c4)CC3)CC2)cc1Cl [TCMDC-138967] | 3.36 | 95.6 | 93.1 | 96.8 | 99.1 | 2.82 | 1190 | 87.8 | 88.3 | 97.6 | 78.8 | 1.93 | 1740 | –
COc1ccc(NC(=O)c2ccc(OCCCCCCCOc3ccc(C(=O)Nc4ccc(OC)c(N5CCN(C)CC5)c4)cc3)cc2)cc1N1CCN(C)CC1.O=C(O)C(=O)O [TCMDC-139007] | 3.94 | 92.9 | 92.7 | 82.0 | 95.6 | 4.37 | 900 | 47.5 | 33.2 | 33.3 | 62.1 | 2.96 | 1330 | –
COc1ccc(NC(=O)c2cccc(Br)c2)cc1N1CCN(CCCCCCCN2CCN(c3cc(NC(=O)c4cccc(Br)c4)ccc3OC)CC2)CC1.Cl [TCMDC-139020] | 7.95 | – | – | – | – | 4 | 1980 | – | – | – | – | 4.34 | 1830 | Average inhibition male (%) [2, 12]: 30.8%; % inhibition male (individual replicates) R1 [2, 13]: 35.3%; % inhibition male (individual replicates) R3 [2, 14]: 36.0%; % inhibition male (individual replicates) R4 [2, 15]: 43.4%; HitlevelM ([2]; 2µM, 24h preincubation): 0; Average inhibition female (%) [3, 12]: 52.2%; % inhibition female (individual replicates) R1 [3, 13]: 51.4%; % inhibition female (individual replicates) R3 [3, 14]: 52.5%; % inhibition female (individual replicates) R4 [3, 15]: 56.9%; HitlevelF ([3]; 2µM, 24h preincubation): 3
COc1cccc(C23NC(=Nc4nc5ccccc5[nH]4)NC2(c2cccc(OC)c2)NC(=Nc2nc4ccccc4[nH]2)N3)c1 (stereo not shown) [TCMDC-139087] | 32.37 | – | – | – | – | 17.52 | – | – | – | – | – | 24.94 | – | inhibition at 2 µM ([2]; Plasmodium falciparum, PfDGFA at 2µM, 24h preincubation with gametocytes, average of replicates, read-out: Average inhibition male (%)): 78.4%; inhibition at 2 µM ([2]; Plasmodium falciparum, PfDGFA at 2µM, 24h preincubation with gametocytes, replicate R1, read-out: % inhibition male (individual replicates) R1): 83%; inhibition at 2 µM ([2]; Plasmodium falciparum, PfDGFA at 2µM, 24h preincubation with gametocytes, replicate R2, read-out: % inhibition male (individual replicates) R2): 72.6%; inhibition at 2 µM ([2]; Plasmodium falciparum, PfDGFA at 2µM, 24h preincubation with gametocytes, replicate R3, read-out: % inhibition male (individual replicates) R3): 79%; inhibition at 2 µM ([2]; Plasmodium falciparum, PfDGFA at 2µM, 24h preincubation with gametocytes, replicate R4, read-out: % inhibition male (individual replicates) R4): 78.9%; IC50 ([2]; Plasmodium falciparum): 1850 nM; HitlevelM ([2]; 2µM): 4; inhibition at 2 µM ([3]; Plasmodium falciparum, PfDGFA at 2µM, 24h preincubation with gametocytes, average of replicates, read-out: Average inhibition female (%)): 28.9%; inhibition at 2 µM ([3]; Plasmodium falciparum, PfDGFA at 2µM, 24h preincubation with gametocytes, replicate R1, read-out: % inhibition female (individual replicates) R1): 18.4%; inhibition at 2 µM ([3]; Plasmodium falciparum, PfDGFA at 2µM, 24h preincubation with gametocytes, replicate R2, read-out: % inhibition female (individual replicates) R2): 40.4%; inhibition at 2 µM ([3]; Plasmodium falciparum, PfDGFA at 2µM, 24h preincubation with gametocytes, replicate R3, read-out: % inhibition female (individual replicates) R3): 9.2%; inhibition at 2 µM ([3]; Plasmodium falciparum, PfDGFA at 2µM, 24h preincubation with gametocytes, replicate R4, read-out: % inhibition female (individual replicates) R4): 47.7%; IC50 ([3]; Plasmodium falciparum): 1300 nM; HitlevelF ([3]; 2µM): 0
